The values that follow come from patent US8961958B2, “High concentration self-microemulsifying coenzyme Q10 preparations for nutritional use” (Bioavailability, Inc, priority 2004, dated 2015).

Data set [1] can be described thus: Solubility of CoQ10 in solvents. The format is physicochemical. The method, then: The speed at which the CoQ10 dissolves into the solvent is primarily a function of the temperature of the solvent and its viscosity, but the base composition that is prepared at a temperature above […] will have the same properties as a base prepared at a temperature of 37° C. If CoQ10 crystals are added to solvents hot enough to melt CoQ10 (48° C. to about 52° C.) the molten CoQ10 mixes and dissolves almost immediately. On the other hand, under room temperature conditions, several hours of stirring may be required to obtain even a 5% CoQ10 concentration in a highly viscous solvent such as a triglyceride oil. By contrast, a low viscosity solvent, such as sweet orange oil can dissolve a 30% CoQ10 concentration under room temperature almost immediately. The fact that CoQ10 melts at about 48° C. to about 52° C. and then is soluble at high concentrations in a wide range of only modestly hydrophobic media, such as ethanol, is distracting to the design of high concentration CoQ10 solutions at room temperature or body temperature. Many different high concentration solutions of CoQ10 which form readily at the high temperatures of molten CoQ10 are not stable, or are meta-stable, at body temperature.
Primary considerations in the choice of an acceptable water-immiscible solvent are somewhat similar to those in choosing an acceptable surfactant. In addition to the basic requirements of bio-compatibility, low toxicity and good taste and odor, the solvent must have a melting point at or about the temperature of a human and most other mammals (about 37° C.), and be able to dissolve a substantial amount of CoQ10 below body temperature. […] Once such a solvent is identified, the saturation capacity of the solvent with CoQ10 at body temperature is then determined, and a reduction in the concentration of CoQ10 is made to ensure that mixture of the CoQ10 and solvent, along with the more hydrophilic surfactant, will not cause CoQ10 precipitation. […]

For data set [2] the following is noted: cited from earlier work.

As to `COC1=C(OC)C(=O)C(C/C=C(\C)CC/C=C(\C)CC/C=C(\C)CC/C=C(\C)CC/C=C(\C)CC/C=C(\C)CC/C=C(\C)CC/C=C(\C)CC/C=C(\C)CCC=C(C)C)=C(C)C1=O` [CoQ10, coenzyme Q10], in data set [1] (sweet orange oil, body temperature), the “thermodynamically stable concentration of CoQ10 in sweet orange oil” value was “up to 55%”. Further, in data set [1] (sweet orange oil, room temperature, almost immediately), the “CoQ10 concentration dissolved in sweet orange oil” value is 30%. In addition, in data set [1] (triglyceride oils, body temperature), the “CoQ10 dissolvable in triglyceride oils” value is given as at most 5 % by weight. Moreover, the “solubility of CoQ10 in water” value in data set [2] is “nearly insoluble in water”.
